Earlier results on 1 compound are cited in patent publication US20050209250A1, “Therapeutic combinations of atypical antipsychotics with corticotropin releasing factor antagonists” (Pfizer Inc, priority 2004, published 2005).

Assay in series [1]: not given
The source holds these as a separate data set.

Molecules are shown by their SMILES.

As usually defined, the half-life is how long it takes for the measured level to halve. In the case of `Cl.O.O=C1Cc2cc(CCN3CCN(c4nsc5ccccc45)CC3)c(Cl)cc2N1` [ziprasidone, 5-[2-[4-(1,2-benzisothiazol-3-yl)piperazin-1-yl]ethyl]-6-chloroindolin-2-one hydrochloride hydrate], for the setting “in vivo”, the half-life was 6 to 7 h. Besides, the Oral bioavailability result (taken with food) is listed as “approximately 60%”. The protein binding entry in series [1] is listed as “extensive”.
